The target of data set [1] is T1, 3-dehydroquinate synthase (AvDHQS, Ava_4386) (Trichormus variabilis, UniProt Q3M4V2).
T1 construct: gene aroB; Ava_4386 in pET22b, C-terminal His-Tag, ∼39 kDa
T1 sequence (Q3M4V2 1-363): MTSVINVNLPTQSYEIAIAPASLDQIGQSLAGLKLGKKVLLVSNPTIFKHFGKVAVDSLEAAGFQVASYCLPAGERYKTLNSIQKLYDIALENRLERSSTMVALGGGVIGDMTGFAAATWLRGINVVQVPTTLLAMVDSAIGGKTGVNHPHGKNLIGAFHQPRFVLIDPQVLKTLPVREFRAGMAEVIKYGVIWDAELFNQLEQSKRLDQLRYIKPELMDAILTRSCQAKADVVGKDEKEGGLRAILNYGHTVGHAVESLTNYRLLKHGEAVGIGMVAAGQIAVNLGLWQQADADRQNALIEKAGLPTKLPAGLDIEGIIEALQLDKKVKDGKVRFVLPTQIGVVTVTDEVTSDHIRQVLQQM
Nature of the data set: Malachite green phosphate release assay with purified AvDHQS; Michaelis-Menten kinetics at […] 7dSh. Type of data set: biochemical.

Substrate in data set [2]: O=C(O)C(=O)C[C@@H](O)[C@H](O)[C@H](O)COP(=O)(O)O
Nature of the data set: Malachite green phosphate release assay with purified AvDHQS; kM of the substrate. Format: biochemical, Trichormus variabilis. As to conditions: NAD^+.

For orientation: Ki means the equilibrium dissociation constant of an inhibitor or competing ligand from its target. A lower Ki goes with tighter binding. The Km is the substrate concentration at which the rate is half of its maximum.

Molecule `C[C@@H](O)[C@@H](O)[C@@H](O)[C@H](O)C(=O)CO` [7dSh, 7-deoxy-D-altro-2-heptulose] had an inhibition constant (Ki) in data set [1] of 17.6 µM.

B1: 3-dehydroquinate synthase (AvDHQS, Ava_4386) (Trichormus variabilis ATCC 29413) (protein)
chain: T1 sequence (Q3M4V2 1-363)
notes: Ava_4386 in pET22b, C-terminal His-Tag, ∼39 kDa
B1: the Michaelis constant (Km) in data set [2] amounted to 1.8 ± 0.3 µM.

(Values after publication PMC8261047, “In vivo Inhibition of the 3-Dehydroquinate Synthase by 7-Deoxysedoheptulose Depends on Promiscuous Uptake by Sugar Transporters in Cyanobacteria” (Frontiers in Microbiology, 2021).)
